Measured values from patent publication EP4311550A1, “CHLOROPHYLLIDE DERIVATIVES FOR USE IN THE PREVENTION OR TREATMENT OF BACTERIAL INFECTION” (Université de Liège, priority 2022, dated 2024).
“And” between values parts separate entries of the source, which are not always exact repeats. Identical values can stand only once.

What was measured:
Format in all cases: cell-based
[1] = test system: Staphylococcus aureus (ATCC 25923); test: disk diffusion assay (growth inhibition halo); conditions: for inhibition diameter (in brackets), in presence of light: Petri dishes incubated in presence of light; for inhibition diameter (in brackets), in the dark: incubation in the dark; for activity of inhibition of S. aureus growth: preparative HPLC fractions redissolved in MeOH/H2O 75%, disk diffusion assay, Figure 3
Protocol: The antimicrobial activity of these extracts was tested against Gram-positive and Gram-negative bacteria, yeasts and fungi by the diffusion disk method. The bacteria tested were Staphylococcus aureus (ATCC 25923), Enterococcus faecium (ATCC 19434), Escherichia coli (ATCC 25922), Pseudomonas aeruginosa (ATCC 27853), Klebsiella pneumoniae (ATCC 13883), methicillin resistant S. aureus (MRSA, ATCC43300) and Bacillus subtilis 168. The yeasts tested were Candida albicans (MUCL 29800), Saccharomyces cerevisiae (MUCL 31497) and the fungus Aspergillus niger (IHEM 3415). Mueller-Hinton II culture medium was used for cultivating S.aureus, E. coli, P. aeruginosa and K. pneumoniae; Brain Heart infusion Broth for E. faecium; Yeast Peptone Dextrose Broth for C. albicans and A. niger and S. cerevisiae. Agar plates with the appropriate medium were inoculated from the glycerol stock culture and Petri dishes were incubated overnight at 37°C for bacteria and at 28°C during 48 hours for the other strains. Colonies or spores (forA. niger) were then resuspended in a sterile solution of NaCl 0.85% to obtain a OD600 between 0.08 and 0.1 at 600 nm (which corresponds to tube of 0.5 on McFarland scale). Sterile cotton buds were soaked with the suspension and the micro-organisms were spread onto the Petri dish. Five sterile disks of chromatography paper (Whatman 3MM) with a diameter of 6,0 mm were placed on the agar plate. Two disks were respectively used for positive (1 mg/ml kanamycin for S. aureus, B. subtilis, E. coli and K. pneumoniae; 25 mg/ml kanamycin for E. faecium; 0,01 mg/ml ciprofloxacin for P. aeruginosa; 20 and 0,01 mg/ml cycloheximide for A. niger and S. cerevisiae, respectively; 0,1 mg/ml nystatin for C. albicans) and negative (MeOH/H2O 75/25%) controls. The remaining disks were used to test the compound of interest in triplicate. On each disk, 10 µl were loaded on the paper disk in two steps (2 x 5 µl) letting the paper dry between the two loadings. The Petri dishes were then incubated as described above. The antimicrobial activity of compounds of interest was visualized by its growth inhibition halo. […] Table 1: Inhibition diameter of the crude methanol 75% extract of spray-dried powder of Scenedemus sp. S4 and freeze-dried powders of D. armatus S0
The injection volume was fixed at 100 µL, the sample temperature in the autosampler was 10°C and the column was thermostatized at 37°C. The effluent was monitored by a photodiode array detector (Waters 2998 PDA detector, detection range: 200-800 nm) and collected using an automatic fraction collector (Waters Fraction Collector III, volume fraction: 500 µl). The collected fractions were then dried by using a vacuum centrifuge (Speedvac vacuum concentrator Savant SPD-111V, Thermo Scientific) and redissolved in 500 µL of MeOH/H2O 75% (75/25 v/v) and assayed for their capacity to inhibit the growth of S. aureus (disk assay as described above). Several fractions were selected for their antibacterial activity and preparative purifications were then carried out to obtain higher quantities of these compounds to allow their identification and subsequently their characterization.
Preparative chromatography was carried out by using an AKTA explorer system (GE Healthcare) and a preparative reverse phase column (Nucleodur C18 Gravity, 5 µm particule size, length x internal diameter: 25 cm x 1 cm) The chromatogram was recorded at 3 different wavelengths: 230 nm, 430 nm and 650 nm. The volume injected was 2 ml and the flow rate fixed at 2 ml/min. The same buffers as those used during analytical separation were selected and the gradient adapted to the column volume. Fraction size was adapted in such a way that one peak corresponded to one collected fraction. These fractions were then dried with a vacuum centrifuge and redissolved in 500 µL of MeOH/H2O 75%. Figure 3 presents the chromatogram obtained at 430 nm. […]

[2] = test system: red blood cell; test: sheep erythrocyte lysis assay; conditions: after 120 min, at 4 x MIC, 37°C
Protocol: Activity of 13^2-hydroxy-methylchlorophyllide a on red blood cell was determined using a sheep erythocyte lysis assay. The lytic action was assessed on defibrinated sheep blood (bioTRADING). The erythrocytes were harvested by centrifugation (1500 rpm, 5 min) and washed 10 times with phosphate buffer saline (PBS). The red blood cells were then diluted 25 times with PBS and washed two more times to obtain a colourless supernatant after a centrifugation at 3000 g for 5 minutes. Samples of 1 ml of red blood cells (25 times diluted) are transferred in Eppendorf tubes and the 13^2-hydroxy-methylchlorophyllide a, dissolved in MeOH/H2O 75% (v/v), was added to obtain a final concentration equal to 1x or 4x MIC. The tubes are then incubated at 37°C at 300 rpm by using a thermomixer HC (Starlab) and 100 µl samples were withdrawn at time 0, 5, 10, 15, 30, 60 and 120 min. […]
The erythrocyte lysis was highlighted by the presence of haemoglobin in the supernatant and quantified by measuring the absorbance of the supernatant at 540 nm by means of a microplate reader Tecan infinite200 pro. The percentage lysis was calculated as follows: % lysis = (AChl^540 −APBS^540)/(ASDS 0.1%^540) × 100 [formula] wherein AChl is the absorbance of the tested compound, APBS is the measured absorbance of the PBS solution and ASDS is the absorbance of the SDS solution (positive control), each at the wavelength of 540 nm. […]

[3] = test system: S. aureus; test: growth curve (OD600) of an early exponential culture after addition of compound; conditions: 1x and 4x the MIC, directly after addition, in the dark
Protocol: To further characterize the antibacterial action of 13^2-hydroxy-methylchlorophyllide a, a S. aureus culture in its early exponential phase of growth was submitted to the action of the chlorophyllide derivative. 100 ml of Mueller-Hinton broth were inoculated with an overnight culture of S. aureus to obtain a bacterial density corresponding to an optical density at 600 nm (OD^600) = 0.05. This culture was then incubated at 37°C under orbital shaking (240 rpm) by using an Aquatron (Infors) shaker. Once the cells enter early exponential growth (OD^600= 0.2), the culture was subdivided into three 20 ml cultures. For two cultures, 13^2-hydroxy-methylchlorophyllide a solubilized in MeOH/H2O 75% was added to reach a final concentration equal to 1x and 4x the MIC, respectively. For the third culture (control culture), a corresponding volume of MeOH/H2O without any chlorophyllide compound was added. In Figure 7 the optical density as a function of time is presented. The addition of the compounds occurred after 75 minutes. […] OD^600 remained unchanged during the whole experiment. This observation supports the hypothesis that no bacterial cell lysis takes place and that the antibacterial activity of 13^2-derivative is either bacteriostatic or non-lytic bactericidal.

[4] = test system: S. aureus (ATCC25923); test: minimum inhibitory concentration by microdilution method; conditions: 37°C, in the dark, 24 hours, Mueller-Hinton broth; 1:40 dilution factor of 58.03 µg/ml stock
Protocol: The minimum inhibitory concentration (MIC) of 13^2-hydroxy-methylchlorophyllide a for S. aureus was determined using the microdilution method. In a 48-well plate, 500 µl of Mueller-Hinton broth were placed in each well. Then, 500 µl of a dilute solution of 13^2-hydroxy-methylchlorophyllide a (stock solution in MeOH/H2O 75% diluted 5x by Mueller-Hinton broth) were added to the first well and serial 2-fold dilutions were made by transferring 500 µL from one well to the next. For the last well, 500 µl were discarded. A culture of S. aureus (ATCC25923) growing in exponential phase was diluted with sterile NaCl 0.85% (w/v) to obtain a bacterial suspension corresponding to 0.5 tube McFarland unit and then dispensed in 500 µl aliquots in the 48 well plate. After covering the 48-plate with its lid, it was incubated at 37°C under agitation and in the dark for 24 hours. The MIC was defined as the last dilution for which no visible bacterial growth was observed. The concentration of the active compound was determined on the basis of a calibration line obtained by injecting increasing volumes of a solution of pure chlorophyllide a standard on a reverse-phase HPLC column.

[5] = test system: S. aureus; test: viable count (CFU per ml) after addition of compound; conditions: 1 or 4 x MIC, in the dark
Protocol: To distinguish between these two antibacterial activities, the number of viable S. aureus were determined by counting the colonies forming units (CFU) per ml of culture before the addition of the chlorophyllide derivative (t=0 h) and after 2 and 4 hours. […] The negative control is represented in black, while cultures treated with 1x and 4xMIC of purified S fraction are hatched and dotted respectively. The data presented are the average values of three independent experiments.
For culture without addition of chlorophyllide derivative (negative control, only addition of MeOH/H2O 75%) S. aureus maintained its growth and CFU/ml increased. On the contrary, once 13^2-hydroxy-methylchlorophyllide a was added (1 or 4 x MIC value in MeOH/H2O 75%, final concentration), the number of CFU/ml decreased of at least four logarithmic steps (4 log10). This means that the chlorophyllide derivative killed, in the dark, more than 99.99% of the bacterial population. The same result was observed after 2 and 4 hours even if for this latter culture a slight return of bacterial growth was observed.

| Molecule | inhibition diameter (in brackets), in presence of light ([1]; disk diameter 6,0 mm) | inhibition diameter (in brackets), in the dark ([1]; disk diameter 6,0 mm) | activity of inhibition of S. aureus growth [1] | other results |
| --- | --- | --- | --- | --- |
| 13^2-hydroxy-chlorophyllide a [listing 1 of 2 here] | 0.86 cm | 0.69 cm |  |  |
| 13^2-hydroxy-chlorophyllide a [listing 2 of 2 here] |  |  | active |  |
| 13^2-hydroxy-chlorophyllide b [listing 1 of 2 here] | 0.70 cm | 0.72 cm |  |  |
| 13^2-hydroxy-chlorophyllide b [listing 2 of 2 here] |  |  | active |  |
| 13^2-hydroxy-methylchlorophyllide a [listing 1 of 2 here] | 1.12 cm | 0.80 cm |  | percentage of red blood cell hemolysis [2]: lower than 10%; S. aureus growth (OD600) [3]: growth was stopped; activity of inhibition of S. aureus growth ([1]; listed as S): most active; MIC [4]: 1.45 µg/mL; decrease of the number of CFU/ml ([5]; after 2 and 4 hours): ≥ 4 log10; bacterial population killed [5]: more than 99.99% |
| 13^2-hydroxy-methylchlorophyllide a [listing 2 of 2 here] |  |  | active |  |
| 13^2-hydroxy-methylchlorophyllide b | 0.87 cm | 0.73 cm |  |  |
| 13^2-hydroxy-methylchlorophyllide b [K] |  |  | active |  |
| NC[C@H]1O[C@H](O[C@H]2[C@H](O)[C@@H](O[C@H]3O[C@H](CO)[C@@H](O)[C@H](N)[C@H]3O)[C@H](N)C[C@@H]2N)[C@H](O)[C@@H](O)[C@@H]1O [Positive control, kanamycin, reference compound] |  |  |  | Inhibition diameter, Positive control ([1]; positive control disk on the plate of the named extract (1 mg/ml kanamycin for S. aureus), 10 µl per disk, disk diameter 6,0 mm): 2.10 cm and 1.62 cm |
| C=CC1=C(C)C2=NC1=CC1=NC(=Cc3[n-]c4c(c3C)=C([O-])C(C(=O)OC)C=4C3=NC(=C2)C(C)C3CCC(=O)OC)C(CC)=C1C.[Mg+2] (centres unmarked) [methyl chlorophyllide a, reference compound] |  | 0.60 cm |  |  |
